Legend:
Design in all cases: species or system human
[1] = system: maternal HIV+ sera (antibodies); test: RIA / ELISA binding of maternal HIV+ sera to gp120 and gp41 peptides (Example 3)
Outline: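 Maternal sera, diluted 1:50 and 1:500, were bound overnight at 4°C to peptides immobilized at 10 μg/ml (pH 9.6 carbonate) and blocked with 1% BSA. Read-out was ¹²⁵I-labelled anti-human IgG counts or HRP-TMB OD450. Signal with peptide minus without was expressed relative to seronegative serum.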

[2] = system: sera samples (antibodies); test: ELISA peptide-binding of maternal sera, MN strain peptides (Example 7); conditions: n = 5
Description: This example provides additional sera screens using peptides corresponding to sequences of the MN strain. The sera samples (5 transmitters and 5 non-transmitters) were obtained from the NIH and differ from those screened in the previous studies. Peptide binding was analyzed by ELISA as described in Example 3.

[3] = system: maternal sera (antibodies); test: ELISA peptide-binding of maternal sera (Example 6)
Outline: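 HIV-1 envelope peptides averaging 16 amino acids, covering external and transmembrane glycoprotein, were probed by ELISA. Third-trimester maternal sera, classed as transmitter or non-transmitter by child diagnosis, were each run on at least 40 peptides. Values give percent of sera binding a peptide.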

[4] = Serum No. 1, Non-Transmission Group
[5] = Serum No. 2, Non-Transmission Group
[6] = Serum No. 3, Non-Transmission Group
[7] = Serum No. 4, Transmission Group
[8] = Serum No. 5, Transmission Group
[9] = Serum No. 6, Non-Transmission Group
[10] = Serum No. 7, Non-Transmission Group
[11] = Serum No. 8, Non-Transmission Group
[12] = Serum No. 9, Non-Transmission Group
[13] = Serum No. 10, Transmission Group
[14] = Serum No. 11, Non-Transmission Group
[15] = Serum No. 12, Non-Transmission Group
[16] = Serum No. 13, Transmission Group
[17] = Serum No. 14, Transmission Group
[18] = Serum No. 15, Transmission Group
[19] = Serum No. 16, Non-Transmission Group
[20] = Serum No. 17, Non-Transmission Group
[21] = Serum No. 18, Non-Transmission Group
[22] = Serum No. 19, Transmission Group
[23] = Serum No. 20, Non-Transmission Group

Q: How did the “Binding of maternal HIV+ serum to peptide (sera/NHS ratio)” value (from here on “Binding … (sera/NHS ratio)”) [1, 4] turn out when LRIVFAVLSVVNRVRQGYSP [Peptide 55] was run?
A: The value was “- (specific OD450 or cpm of sera sample binding to peptide divided by the specific OD450 or cpm of NHS sample binding to peptide, which value is less than 2)”.

Q: And the “Binding … (sera/NHS ratio)” value [1, 5]?
A: Its value is “- (specific OD450 or cpm of sera sample binding to peptide divided by the specific OD450 or cpm of NHS sample binding to peptide, which value is less than 2)”.

Q: What about the “Binding … (sera/NHS ratio)” value [1, 6] of the same sequence?
A: The value was “- (specific OD450 or cpm of sera sample binding to peptide divided by the specific OD450 or cpm of NHS sample binding to peptide, which value is less than 2)”.

Q: And the “Binding … (sera/NHS ratio)” value [1, 7]?
A: The value was “- (specific OD450 or cpm of sera sample binding to peptide divided by the specific OD450 or cpm of NHS sample binding to peptide, which value is less than 2)”.

Q: And the “Binding … (sera/NHS ratio)” value [1, 8]?
A: The value was “- (specific OD450 or cpm of sera sample binding to peptide divided by the specific OD450 or cpm of NHS sample binding to peptide, which value is less than 2)”.

Q: And the “Binding … (sera/NHS ratio)” value [1, 9]?
A: Its value is “- (specific OD450 or cpm of sera sample binding to peptide divided by the specific OD450 or cpm of NHS sample binding to peptide, which value is less than 2)”.

Q: What about the “Binding … (sera/NHS ratio)” value [1, 10] of the same sequence?
A: The value was “- (specific OD450 or cpm of sera sample binding to peptide divided by the specific OD450 or cpm of NHS sample binding to peptide, which value is less than 2)”.

Q: And the “Binding … (sera/NHS ratio)” value [1, 11]?
A: Its value is “- (specific OD450 or cpm of sera sample binding to peptide divided by the specific OD450 or cpm of NHS sample binding to peptide, which value is less than 2)”.

Q: What about the “Binding … (sera/NHS ratio)” value [1, 12] of the same sequence?
A: The value was “- (specific OD450 or cpm of sera sample binding to peptide divided by the specific OD450 or cpm of NHS sample binding to peptide, which value is less than 2)”.

Q: What about the “Binding … (sera/NHS ratio)” value [1, 13] of the same sequence?
A: The value was “- (specific OD450 or cpm of sera sample binding to peptide divided by the specific OD450 or cpm of NHS sample binding to peptide, which value is less than 2)”.

Q: What about the “Binding … (sera/NHS ratio)” value [1, 14] of the same sequence?
A: Its value is “- (specific OD450 or cpm of sera sample binding to peptide divided by the specific OD450 or cpm of NHS sample binding to peptide, which value is less than 2)”.

Q: And the “Binding … (sera/NHS ratio)” value [1, 15]?
A: Its value is “- (specific OD450 or cpm of sera sample binding to peptide divided by the specific OD450 or cpm of NHS sample binding to peptide, which value is less than 2)”.

Q: What about the “Binding … (sera/NHS ratio)” value [1, 16] of the same sequence?
A: The value was “- (specific OD450 or cpm of sera sample binding to peptide divided by the specific OD450 or cpm of NHS sample binding to peptide, which value is less than 2)”.

Q: And the “Binding … (sera/NHS ratio)” value [1, 17]?
A: Its value is “- (specific OD450 or cpm of sera sample binding to peptide divided by the specific OD450 or cpm of NHS sample binding to peptide, which value is less than 2)”.

Q: And the “Binding … (sera/NHS ratio)” value [1, 18]?
A: Its value is “- (specific OD450 or cpm of sera sample binding to peptide divided by the specific OD450 or cpm of NHS sample binding to peptide, which value is less than 2)”.

Q: What about the “Binding … (sera/NHS ratio)” value [1, 19] of the same sequence?
A: Its value is “- (specific OD450 or cpm of sera sample binding to peptide divided by the specific OD450 or cpm of NHS sample binding to peptide, which value is less than 2)”.

Q: What about the “Binding … (sera/NHS ratio)” value [1, 20] of the same sequence?
A: Its value is “- (specific OD450 or cpm of sera sample binding to peptide divided by the specific OD450 or cpm of NHS sample binding to peptide, which value is less than 2)”.

Q: What about the “Binding … (sera/NHS ratio)” value [1, 21] of the same sequence?
A: The value was “- (specific OD450 or cpm of sera sample binding to peptide divided by the specific OD450 or cpm of NHS sample binding to peptide, which value is less than 2)”.

Q: What about the “Binding … (sera/NHS ratio)” value [1, 22] of the same sequence?
A: The value was “- (specific OD450 or cpm of sera sample binding to peptide divided by the specific OD450 or cpm of NHS sample binding to peptide, which value is less than 2)”.

Q: What about the “Binding … (sera/NHS ratio)” value [1, 23] of the same sequence?
A: Its value is “- (specific OD450 or cpm of sera sample binding to peptide divided by the specific OD450 or cpm of NHS sample binding to peptide, which value is less than 2)”.

Q: And the “% Bound, Non-Transmitter” value [2]?
A: The value was 0%.

Q: And the “No. of Sera Samples Bound, Non-Transmitter” value [2]?
A: Its value is 0.

Q: What about the “% Bound, Transmitter” value [2] of the same sequence?
A: The value was 0%.

Q: What about the “No. of Sera Samples Bound, Transmitter” value [2] of the same sequence?
A: The value was 0.

Q: How did the “Binding … (sera/NHS ratio)” value [1, 4] turn out when ELDKWASLWNWFNITNWLWY [Peptide 53] was run?
A: The value was “- (specific OD450 or cpm of sera sample binding to peptide divided by the specific OD450 or cpm of NHS sample binding to peptide, which value is less than 2)”.

Q: What about the “Binding … (sera/NHS ratio)” value [1, 5] of the same sequence?
A: Its value is “- (specific OD450 or cpm of sera sample binding to peptide divided by the specific OD450 or cpm of NHS sample binding to peptide, which value is less than 2)”.

Q: What about the “Binding … (sera/NHS ratio)” value [1, 6] of the same sequence?
A: The value was “- (specific OD450 or cpm of sera sample binding to peptide divided by the specific OD450 or cpm of NHS sample binding to peptide, which value is less than 2)”.

Q: What about the “Binding … (sera/NHS ratio)” value [1, 7] of the same sequence?
A: The value was “- (specific OD450 or cpm of sera sample binding to peptide divided by the specific OD450 or cpm of NHS sample binding to peptide, which value is less than 2)”.

Q: And the “Binding … (sera/NHS ratio)” value [1, 8]?
A: Its value is “- (specific OD450 or cpm of sera sample binding to peptide divided by the specific OD450 or cpm of NHS sample binding to peptide, which value is less than 2)”.

Q: And the “Binding … (sera/NHS ratio)” value [1, 9]?
A: Its value is “- (specific OD450 or cpm of sera sample binding to peptide divided by the specific OD450 or cpm of NHS sample binding to peptide, which value is less than 2)”.

Q: What about the “Binding … (sera/NHS ratio)” value [1, 10] of the same sequence?
A: Its value is “++ (which value is greater than 3)”.

Q: And the “Binding … (sera/NHS ratio)” value [1, 11]?
A: The value was “- (specific OD450 or cpm of sera sample binding to peptide divided by the specific OD450 or cpm of NHS sample binding to peptide, which value is less than 2)”.

Q: And the “Binding … (sera/NHS ratio)” value [1, 12]?
A: The value was “- (specific OD450 or cpm of sera sample binding to peptide divided by the specific OD450 or cpm of NHS sample binding to peptide, which value is less than 2)”.

Q: What about the “Binding … (sera/NHS ratio)” value [1, 13] of the same sequence?
A: The value was “- (specific OD450 or cpm of sera sample binding to peptide divided by the specific OD450 or cpm of NHS sample binding to peptide, which value is less than 2)”.

Q: And the “Binding … (sera/NHS ratio)” value [1, 14]?
A: The value was “- (specific OD450 or cpm of sera sample binding to peptide divided by the specific OD450 or cpm of NHS sample binding to peptide, which value is less than 2)”.

Q: And the “Binding … (sera/NHS ratio)” value [1, 15]?
A: The value was “- (specific OD450 or cpm of sera sample binding to peptide divided by the specific OD450 or cpm of NHS sample binding to peptide, which value is less than 2)”.

Q: And the “Binding … (sera/NHS ratio)” value [1, 16]?
A: Its value is “- (specific OD450 or cpm of sera sample binding to peptide divided by the specific OD450 or cpm of NHS sample binding to peptide, which value is less than 2)”.

Q: And the “Binding … (sera/NHS ratio)” value [1, 17]?
A: The value was “- (specific OD450 or cpm of sera sample binding to peptide divided by the specific OD450 or cpm of NHS sample binding to peptide, which value is less than 2)”.

Q: What about the “Binding … (sera/NHS ratio)” value [1, 18] of the same sequence?
A: The value was “- (specific OD450 or cpm of sera sample binding to peptide divided by the specific OD450 or cpm of NHS sample binding to peptide, which value is less than 2)”.

Q: And the “Binding … (sera/NHS ratio)” value [1, 19]?
A: Its value is “- (specific OD450 or cpm of sera sample binding to peptide divided by the specific OD450 or cpm of NHS sample binding to peptide, which value is less than 2)”.

Q: What about the “Binding … (sera/NHS ratio)” value [1, 20] of the same sequence?
A: Its value is “+ (which value is between 2 to 3)”.

Q: What about the “Binding … (sera/NHS ratio)” value [1, 21] of the same sequence?
A: Its value is “- (specific OD450 or cpm of sera sample binding to peptide divided by the specific OD450 or cpm of NHS sample binding to peptide, which value is less than 2)”.

Q: And the “Binding … (sera/NHS ratio)” value [1, 22]?
A: The value was “- (specific OD450 or cpm of sera sample binding to peptide divided by the specific OD450 or cpm of NHS sample binding to peptide, which value is less than 2)”.

Q: And the “Binding … (sera/NHS ratio)” value [1, 23]?
A: The value was “- (specific OD450 or cpm of sera sample binding to peptide divided by the specific OD450 or cpm of NHS sample binding to peptide, which value is less than 2)”.

Q: And the “% Bound, Non-Transmitter” value [2]?
A: The value was 0%.

Q: What about the “No. of Sera Samples Bound, Non-Transmitter” value [2] of the same sequence?
A: The value was 0.

Q: And the “% Bound, Transmitter” value [2]?
A: The value was 0%.

Q: What about the “No. of Sera Samples Bound, Transmitter” value [2] of the same sequence?
A: The value was 0.

Q: What about the “Number of Non-Transmitters which bound to peptide” value ([3]; Non-Transmitters, N = 12) of the same sequence?
A: The value was 0.

Q: What about the “Percent of Non-Transmitters which bound to peptide” value ([3]; Non-Transmitters, N = 12) of the same sequence?
A: The value was 0%.

Q: What about the “Number of Transmitters which bound to peptide” value ([3]; Transmitters, N = 4) of the same sequence?
A: The value was 0.

Q: What about the “Percent of Transmitters which bound to peptide” value ([3]; Transmitters, N = 4) of the same sequence?
A: The value was 0%.

Reference: US5556744A, “Methods and compositions for diagnosing and treating certain HIV infected patients” (The Trustees of the University of Pennsylvania, priority 1994, dated 1996)
